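96-well plates; 48 h exposure; 5 concentrations. Endpoints by linear interpolation between flanking doses. Not reached: highest tested concentration assigned. GI50: concentration for 50% inhibition of growth. The concentration for full growth arrest is given as TGI.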

Experiment in all cases: NCI-60 cell line screen, 48 h
In assay [1] the test system is U251 CNS.
The test system of assay [2] is IGROV1 ovarian.
Assay [3] deals with OVCAR-5 ovarian.
Assay [4] relates to KM12 colon.
In assay [5] the test system is EKVX NSCLC.
Assay [6] concerns OVCAR-3 ovarian.
The test system of assay [7] is HT29 colon.
Assay [8] deals with NCI-H23 lung.
Assay [9] concerns NCI-H522 lung.
Assay [10] concerns HOP-92 NSCLC.

In the case of `Cc1ccc(Sc2cc([N+](=O)[O-])cc(Sc3ccc(C)cc3)c2Sc2ccc(C)cc2)cc1`, the TGI in [1], in assay [2], in assay [3], in assay [4], in [5] and in [6] was above 100 µM throughout. Further, the TGI in assay [7] was above 100 µM.

As to `COc1ccc2c(c1)cn1c3ccc(OC)cc3[nH]c(=O)c21`, the GI50 in assay [1] was below 0.0172 µM; in assay [2], below 0.0155 µM; in [8], below 0.0238 µM; in [3], below 0.0232 µM; in [4], below 0.0187 µM; in [5], below 0.0256 µM. Also, the values for the GI50 in assay [6], in assay [7] and in [9] were below 0.0152 µM, below 0.0155 µM and below 0.0134 µM, respectively. Also, the TGI worked out at 1.25 µM in [1]; 0.813 µM in assay [2]; 0.934 µM in assay [8]; 1.81 µM in [3]; 0.247 µM in [4]; 1.76 µM in assay [5]. In addition, the TGI was below 0.024 µM in [6], 0.281 µM in assay [7] and 0.15 µM in assay [9].

As for `CC(=O)O[C@H]1CC[C@@]2(C)[C@@H](CC[C@@H]3[C@@H]2CC(=O)[C@@]2(C)[C@H]3C[C@@H]3CC(C)=CC(=O)[C@@H]32)C1`, the TGI in assay [1], in assay [2], in [8], in assay [3], in assay [4] and in [5] was above 100 µM in each case. Further, the TGI in assay [6], in assay [7] and in assay [9] was above 100 µM each time.

As for `Cc1nc(N(C)C)nc(-c2cccc(-c3ccn(CCN(C)C)n3)c2)c1C`, the GI50 was above 20 µM in [1]; above 20 µM in assay [2]; above 20 µM in [8]; above 20 µM in [3]; above 20 µM in assay [4]; 4.71 µM in [10]. The GI50 in [6], in assay [7] and in assay [9] was above 20 µM each time. The TGI in assay [1], in assay [2], in assay [8], in assay [3], in assay [4] and in assay [10] was above 20 µM in each case. Besides, the TGI in assay [6], in [7] and in assay [9] was above 20 µM in each case.

Consider `c1ccc(Oc2cnc3ccccc3n2)cc1`, for which the GI50 is above 100 µM in [1]; 74.5 µM in [2]; above 100 µM in [8]; above 100 µM in assay [3]; above 100 µM in assay [4]; 77.4 µM in [5]. Further, the GI50 in assay [6], in [7] and in [9] was above 100 µM in each case. In addition, the TGI in assay [1], in assay [2], in assay [8], in [3], in assay [4] and in assay [5] was above 100 µM in each case. The TGI in [6], in [7] and in assay [9] was above 100 µM throughout.

On to `O=C(/C=C/c1ccco1)c1cccc(Nc2nc(Nc3ccccc3)nc(Nc3ccccc3)n2)c1`, for which the GI50 in assay [1] was 16 µM; in assay [2] it was 2.87 µM; in [8], 26.1 µM; in [3] it was above 100 µM; in assay [4] it was 6.06 µM; in [5], 9.82 µM. In addition, the GI50 in [6] is 2.83 µM; in assay [7], 17.2 µM; in assay [9], 44.6 µM. Moreover, the TGI in assay [1], in assay [2], in assay [8], in [3], in assay [4] and in assay [5] was above 100 µM in each case. Besides, the TGI is 27.1 µM in assay [6], above 100 µM in assay [7] and above 100 µM in assay [9].

As for `O=C1C2Cc3ccccc3CN2C(=O)N1CCN1CCOCC1` (configuration not stated), the TGI in assay [1], in [2], in [8], in assay [3], in assay [4] and in assay [6] was above 100 µM throughout. Besides, the TGI in [9] is above 100 µM.

`OC(c1cc2c(Cl)cc(Cl)cc2c2cc(C(F)(F)F)ccc12)C1CCCCN1` (configuration not stated): the GI50 is 1.74 µM in assay [2]; 1.66 µM in [8]; 1.58 µM in assay [3]; 1.89 µM in assay [4]; 1.12 µM in assay [10]; 1.91 µM in assay [6]. Further, the figures for the GI50 in assay [7] and in [9] were 1.97 µM and 1.55 µM, respectively. The TGI came out at 3.58 µM in [2]; 3.43 µM in assay [8]; 3.15 µM in assay [3]; 3.46 µM in assay [4]; 2.57 µM in assay [10]; 3.52 µM in assay [6]. Further, the TGI was determined as 3.71 µM in assay [7] and 3.22 µM in assay [9].

Take `COc1cccc(-c2nn(C)c3sc(C(=O)NCCN4CCN(c5ccccc5F)CC4)cc23)c1`: the GI50 in assay [1] is 7.14 µM; in assay [2], above 100 µM; in assay [8] it was 34.5 µM; in [3], 6.55 µM; in assay [4] it was 10.1 µM; in [10] it was 13.4 µM. In addition, the GI50 is 20.6 µM in assay [6], 4.66 µM in assay [7] and 18.8 µM in assay [9]. Moreover, the TGI in assay [1] is 59.5 µM; in assay [2], above 100 µM; in assay [8], above 100 µM; in assay [3], 96.6 µM; in assay [4], above 100 µM; in [10], above 100 µM. Besides, the TGI in [6] was above 100 µM; in assay [7], 51.3 µM; in assay [9], above 100 µM.

For `C=CCOc1ccc2c(c1)CC[C@@H]1[C@@H]2CC[C@]2(C)C(=O)/C(=N/O)C[C@@H]12`, the GI50 in assay [1] was 9.8 µM; in assay [2], 3.42 µM; in [8], 10.1 µM; in [3], 4.18 µM; in assay [4] it was 3.27 µM; in assay [10] it was 1.52 µM. Besides, the GI50 in [6] was 7.06 µM; in [7] it was 1.81 µM; in [9], 5.59 µM. For the same molecule, the TGI in [1] was above 51 µM; in assay [2] it was 14.2 µM; in [8] it was 52.8 µM; in [3], above 45.4 µM; in assay [4], 11.2 µM; in assay [10], 5.98 µM. In addition, the TGI in assay [6] is 25.9 µM; in assay [7], 4.68 µM; in assay [9], 17.4 µM.

In the case of `Nc1nc(-c2ccccc2Cl)cc(-c2ccc(Cl)cc2Cl)n1`, the GI50 in assay [1] was 11.1 µM; in assay [2], 12.3 µM; in [8] it was 12.3 µM; in [3], 8.09 µM; in assay [4] it was 4.1 µM; in assay [10], 0.527 µM. For the same molecule, the GI50 is 4.05 µM in [6], 4.32 µM in assay [7] and 3.27 µM in [9]. The TGI in assay [1] is above 100 µM; in [2] it was above 100 µM; in assay [8] it was above 100 µM; in assay [3], above 100 µM; in assay [4], 31.3 µM; in assay [10], 7.62 µM. The values for the TGI in assay [6], in assay [7] and in assay [9] were 20.7 µM, 24.3 µM and 23.3 µM, respectively.

On to `Cn1cc(C2=C(c3cn(CCCN/C(N)=N\[N+](=O)[O-])c4ccccc34)C(=O)NC2=O)c2ccccc21`, for which the GI50 in assay [1] is 2.05 µM; in [2] it was 3.11 µM; in [8], 5.13 µM; in assay [3], 11.4 µM; in assay [4], 2.77 µM; in assay [10] it was 3.89 µM. Also, the values for the GI50 in assay [6], in [7] and in assay [9] were 1.17 µM, 2.87 µM and 2.44 µM, respectively. For the same molecule, the TGI in [1] was 15.4 µM; in assay [2] it was 11.6 µM; in [8], 15.9 µM; in assay [3] it was above 25 µM; in [4], above 18.1 µM; in assay [10], 16.2 µM. The TGI in assay [6] came out at 11.4 µM; in [7], 12.6 µM; in [9], 9.99 µM.

Turning to `c1ccc2c(c1)-c1nc3ccccc3cc1C2N1CCOCC1` (configuration not stated), the TGI in [1], in assay [2], in [8], in assay [3], in assay [4] and in assay [5] was above 100 µM throughout. Also, the TGI in assay [6], in [7] and in [9] was above 100 µM throughout.

Regarding `CC(NC(=O)C1(N)CCCC1)C(=O)O` (configuration not stated), the TGI in assay [1], in assay [2], in [8], in assay [3], in assay [4] and in assay [5] was above 100 µM throughout. The TGI in assay [6], in assay [7] and in [9] was above 100 µM in each case.

Turning to `C=C1[C@@H]2CCC(C)(C)[C@H]1CCC(=O)[C@@H]2C(=O)OC`, the TGI in [1], in assay [2], in [8], in assay [5], in assay [6] and in [7] was above 100 µM in each case.

(Values after PubChem BioAssay (NCI).)
